Source: patent US4048333A (priority 1971, dated 1977)

Tests used:
poliovirus 1 [1] = assay type: cell-based, poliovirus 1 (FL cells); conditions: maximum subtoxic concentration; for Results from one-step virus growth cycle experiments, % of inhibition: virus yield vs control; for Results from one-step virus growth cycle experiments, PFU/ml: control 1.2×10^9
echovirus 19 = assay: one-step virus growth cycle experiments, echovirus 19; assay type: cell-based, echovirus 19 (FL cells); conditions: maximum subtoxic concentration; for Results from the one-step virus growth cycle experiments, % of inhibition: virus yield vs control; for Results from the one-step virus growth cycle experiments, PFU/ml: control 2.6×10^9
[2] = test system: coxsackievirus B1, B3, A6 and A7; assay: animal or person; assay type: in vivo, newborn mice; conditions: for ED50: Enterovirus B, B1, in Mus musculus, sc, read-out: ED50 dose; for antiviral activity on experimental Coxsackie infections (in words): mouse, in vivo; for retardation of the course of the infection: newborn mice, 3-10 LD50, subcutaneous once daily
[3] = acute toxicity for mice (LD50, Pershin method); conditions: mouse, in vivo; for LD50: mice, Pershin method
[4] = acute toxicity for rats (LD50, Pershin method); conditions: rat, in vivo, ip, intraperitoneal
rats = assay: subacute toxicity for rats; assay type: in vivo; conditions: intraperitoneal, 200 mg/kg daily for 30 days
pregnant female rats = assay: teratogenic effect in pregnant female rats; assay type: in vivo; conditions: intraperitoneal, daily doses of 100 mg/kg
FMD virus type C = assay type: cell-based, FMD virus type C (calf kidney primary cultures)
FMD = test system: FMD; parameters: species or system newborn mice; conditions: mouse, in vivo
[5] = acute toxicity / selectivity index, species not stated; conditions: in vivo; species and route not given
coxsackievirus B1 = assay type: cell-based, coxsackievirus B1 (FL cells)
FMD virus = test system: FMD virus; parameters: species or system guinea pigs; conditions: guinea pig, in vivo
poliovirus 1 [6] = assay type: cell-based, poliovirus 1 (FL cells); conditions: FL cells, 48 hour incubation

O=C(O)c1ccccc1NC(=S)Nc1ccccc1 [N-phenyl-N'-2-carboxyphenylthiourea]
Results from one-step virus growth cycle experiments, % of inhibition (poliovirus 1 [1]): 95-99% | Results from the one-step virus growth cycle experiments, % of inhibition (echovirus 19): above 99%

Oc1cccc(NC(=S)Nc2ccccc2)c1 [Example 19]
Results from the one-step virus growth cycle experiments, PFU/ml (echovirus 19): 2×10^6 PFU/ml | Results from the one-step virus growth cycle experiments, % of inhibition (echovirus 19): 99.92%

O=[N+]([O-])c1ccc(O)c(NC(=S)Nc2ccccc2)c1 [Example 7]
Results from one-step virus growth cycle experiments, PFU/ml (poliovirus 1 [1]): 3.5×10^8 PFU/ml | Results from one-step virus growth cycle experiments, % of inhibition (poliovirus 1 [1]): 70.83%

O=C(O)c1ccc(NC(=S)Nc2ccccc2)cc1O [Example 4, N-phenyl-N'-4-carboxy-5-hydroxyphenylthiourea]
Results from one-step virus growth cycle experiments, PFU/ml (poliovirus 1 [1]): < 1×10^6 PFU/ml | Results from one-step virus growth cycle experiments, % of inhibition (poliovirus 1 [1]): > 99.92% | Results from the one-step virus growth cycle experiments, % of inhibition (echovirus 19): above 99% | ED50 [2]: 43.3 mg/kg | antiviral activity on experimental Coxsackie infections (in words) [2]: marked antiviral activity | retardation of the course of the infection [2]: 2 to 3 days | LD50 ([3]; ip, intraperitoneal): 550 mg/kg | LD50 ([3]; sc, subcutaneous): > 1000 mg/kg | selectivity ratio ([3]; LD50 /ED50, read-out: selectivity index (LD50 /ED50)): ≥ 23 | LD50 [4]: 734 mg/kg | subacute toxicity: changes in general state, behaviour, weight, blood pattern (rats): no changes in the general state and behaviour of the animals, or in their weight, the blood pattern, etc. were observed | teratogenic effect (pregnant female rats): No teratogenic effect

O=C(O)c1ccc(NC(=S)Nc2ccccc2)cc1O [Example 18]
Results from the one-step virus growth cycle experiments, PFU/ml (echovirus 19): < 1×10^6 PFU/ml | Results from the one-step virus growth cycle experiments, % of inhibition (echovirus 19): > 99.96%

Oc1cccc(NC(=S)Nc2ccccc2)c1 [Example 22, N-phenyl-N'-3-hydroxyphenylthiourea]
Results from the one-step virus growth cycle experiments, % of inhibition (echovirus 19): above 99% | Results from the one-step virus growth cycle experiments, % of inhibition (FMD virus type C): 97.92% | Results from the one-step virus growth cycle experiments, PFU/ml (FMD virus type C): 1.5×10^5 PFU/ml | ED50 [2]: 86.6 mg/kg | antiviral activity on experimental Coxsackie infections (in words) [2]: marked antiviral activity | retardation of the course of the infection [2]: 2 to 3 days | animals in which development of FMD encephalitis is prevented (FMD): 33.3% | LD50 [5]: 1000 mg/kg

Oc1ccc(NC(=S)Nc2ccccc2)cc1 [Example 6]
Results from one-step virus growth cycle experiments, PFU/ml (poliovirus 1 [1]): 3.7×10^8 PFU/ml | Results from one-step virus growth cycle experiments, % of inhibition (poliovirus 1 [1]): 69.17%

O=C(O)CCCNC(=S)Nc1ccccc1 [Example 8, γ-phenylthioureidobutyric acid]
Results from one-step virus growth cycle experiments, PFU/ml (poliovirus 1 [1]): 1.5×10^7 PFU/ml | Results from the one-step virus growth cycle experiments, PFU/ml (coxsackievirus B1): ≤ 1×10^6 PFU/ml | Results from the one-step virus growth cycle experiments, PFU/ml (echovirus 19): 5× 10^6 PFU/ml | Results from the one-step virus growth cycle experiments, % of inhibition (echovirus 19; listed as 21): 99.81% | Results from the one-step virus growth cycle experiments, % of inhibition (echovirus 19; listed as μ-phenylthioureidobutyric acid): above 99%

O=C(O)c1ccccc1NC(=S)Nc1ccccc1 [Example 3]
Results from one-step virus growth cycle experiments, PFU/ml (poliovirus 1 [1]): 5.9×10^7 PFU/ml | Results from one-step virus growth cycle experiments, % of inhibition (poliovirus 1 [1]): 95.09%

S=C(Nc1ccccc1)Nc1ccc(Cl)cc1NC(=S)Nc1ccccc1 [Example 11]
Results from one-step virus growth cycle experiments, PFU/ml (poliovirus 1 [1]): 4.3×10^8 PFU/ml | Results from one-step virus growth cycle experiments, % of inhibition (poliovirus 1 [1]): 57.00%

O=C(O)c1ccccc1NC(=S)Nc1ccccc1 [Example 17]
Results from the one-step virus growth cycle experiments, PFU/ml (echovirus 19): 5×10^6 PFU/ml | Results from the one-step virus growth cycle experiments, % of inhibition (echovirus 19): 99.81%

S=C(Nc1ccccc1)Nc1cnc2ccccc2c1 [Example 1]
Results from one-step virus growth cycle experiments, PFU/ml (poliovirus 1 [1]): 3.3×10^8 PFU/ml | Results from one-step virus growth cycle experiments, % of inhibition (poliovirus 1 [1]): 67.00%

CC(=O)c1ccc(NC(=S)Nc2ccccc2)cc1 [N-phenyl-N'-acetylphenylthiourea]
Results from one-step virus growth cycle experiments, % of inhibition (poliovirus 1 [1]): 95-99%

Oc1ccc(NC(=S)Nc2ccccc2)cc1 [Example 24, N-phenyl-N'-4-hydroxyphenylthiourea]
Results from the one-step virus growth cycle experiments, % of inhibition (FMD virus type C): 99.65% | Results from the one-step virus growth cycle experiments, PFU/ml (FMD virus type C): 2.5×10^4 PFU/ml | reduction of the number of ailing animals compared with the placebo group (FMD virus): reduces the number of ailing animals two to three and a half times

O=[N+]([O-])c1ccc(O)c(NC(=S)Nc2ccccc2)c1 [Example 20, N-phenyl-N'-2-hydroxy-5-nitrophenylthiourea]
Results from the one-step virus growth cycle experiments, PFU/ml (echovirus 19): 5.9×10^7 PFU/ml | Results from the one-step virus growth cycle experiments, % of inhibition (echovirus 19): 97.73%

O=C(O)c1ccc(NC(=S)Nc2ccccc2)cc1O [Example 12]
Results from the one-step virus growth cycle experiments, PFU/ml (coxsackievirus B1): ≤ 1×10^6 PFU/ml

CC(=O)c1ccc(NC(=S)Nc2ccccc2)cc1 [Example 10]
Results from one-step virus growth cycle experiments, PFU/ml (poliovirus 1 [1]): 4.6×10^7 PFU/ml | Results from one-step virus growth cycle experiments, % of inhibition (poliovirus 1 [1]): 96.17%

Oc1cccc(NC(=S)Nc2ccccc2)c1 [Example 5]
Results from the gradient plaque-inhibition test (poliovirus 1 [6]): + + | Results from one-step virus growth cycle experiments, PFU/ml (poliovirus 1 [1]): 7×10^6 PFU/ml | Results from one-step virus growth cycle experiments, % of inhibition (poliovirus 1 [1]): 99.42%

Cc1cccc(NC(=S)Nc2ccccc2)c1 [N-phenyl-N'-3-tolylthiourea]
Results from one-step virus growth cycle experiments, % of inhibition (poliovirus 1 [1]): 95-99%

Cc1cccc(NC(=S)Nc2ccccc2)c1 [Example 9]
Results from one-step virus growth cycle experiments, PFU/ml (poliovirus 1 [1]): 1.4×10^7 PFU/ml | Results from one-step virus growth cycle experiments, % of inhibition (poliovirus 1 [1]): 98.79%

Oc1cccc(NC(=S)Nc2ccccc2)c1 [Example 13]
Results from the one-step virus growth cycle experiments, PFU/ml (coxsackievirus B1): ≤ 1×10^6 PFU/ml

O=[N+]([O-])c1ccc(O)c(NC(=S)Nc2ccccc2)c1 [Example 15]
Results from the one-step virus growth cycle experiments, % of inhibition (coxsackievirus B1): 93.87% | Results from the one-step virus growth cycle experiments, PFU/ml (coxsackievirus B1): 4.6×10^7 PFU/ml

S=C(Nc1ccccc1)Nc1cccc2cccnc12 [Example 2]
Results from one-step virus growth cycle experiments, PFU/ml (poliovirus 1 [1]): 5.2×10^8 PFU/ml | Results from one-step virus growth cycle experiments, % of inhibition (poliovirus 1 [1]): 48.00%

Oc1ccc(NC(=S)Nc2ccccc2)cc1 [Example 14]
Results from the one-step virus growth cycle experiments, PFU/ml (coxsackievirus B1): < 1×10^6 PFU/ml
